Measurements reported in EPA's ToxValDB 9.5 (doi:10.2903/j.efsa.2021.6237).

Tests used:
[1] = test system: Tagia sp.; details: chronic/long-term; duration: 56 days; reproduction
[2] = test system: Rattus norvegicus
[3] = test system: Daphnia magna; details: chronic/long-term; duration: 21 days; reproduction
[4] = test system: Canidae; details: subchronic; duration: 90 days; oral; Dog Other; clinical chemistry
[5] = test system: Apis mellifera; details: acute, mortality
[6] = test system: Anas platyrhynchos; details: short-term; oral; feed; mortality
[7] = test system: Oncorhynchus mykiss; details: chronic/long-term; duration: 60 days; other
[8] = test system: Colinus virginianus; details: acute; oral; mortality
[9] = test system: Lepomis macrochirus; details: acute; duration: 96 hours; mortality

## COP(=S)(OC)SCN1C(=O)c2ccccc2C1=O [Phosmet]
[1]
  NOEC: 2.96 mg/kg
[2]; acute, oral, mortality
  LD50: 113 mg/kg-day
[2]; chronic, duration: 2 years, clinical chemistry
  NOAEL: 1.8 mg/kg-day
[2]; developmental, development
  NOAEL: 10 mg/kg-day
[2]; reproduction developmental
  NOAEL: 1 mg/kg-day
[2]; subchronic, duration: 90 days, oral, clinical chemistry
  NOAEL: 1.88 mg/kg-day
[3]
  NOEC: 0.78 µg/L
[4]
  NOAEL: 1.88 mg/kg-day
[5]; dermal
  LD50: 0.22 µg/piece
[5]; oral, unspecified
  LD50: 0.302 µg/piece
[6]
  LD50: > 2320 mg/kg-day
[7]
  NOEC: 3.2 µg/L
[8]
  LD50: 56.2 mg/kg-day
[9]
  LD50: 19.7 µg/L
